Test results published in patent US10076550B2, “Synergistic pharmaceutical composition for gastroinestinal disorders” (COUNCIL OF SCIENTIFIC & INDUSTRIAL RESEARCH, priority 2014, dated 2018).
Counter-ions that a name gives are not always drawn. Marks after values point to notes of the source that are not given here.

Assays:
Type in all cases: in vivo
[1] = test system: castor-oil induced diarrhea; experiment: castor oil induced diarrhea in rats; conditions: reference drug 5.0 mg/kg p.o., 2 mL castor oil after 60 min, observed 4 h
Protocol: The efficacy of composition as an antidiarrheal agent was evaluated using castor oil induced diarrhea. The castor oil model has been an extensively used pharmacological test to screen and evaluate antidiarrheal properties of drugs in rats. The liberation of ricinoleic acid from castor oil results in irritation and inflammation of intestinal mucosa, leading to release of prostaglandins, which stimulates motility and secretion (Pierce, N. F., Carpenter. C. C. J., Elliiot, H. Z. and Greenough, W. B., Effects of prostaglandins, Theophylline and cholera exotoxin upon transmucosalwater and electrolyte movement in canine jejunum, Gastroenterology, 1971; 60: 22-32). Castor oil is also reported to induce diarrhea by increasing the volume of intestinal content by prevention of the reabsorption of water. […] After 60 min each animal was given with 2 mL of castor oil by orogastric cannula, and placed in a separate cage and observed for 4 h defecation the characteristic diarrheal droppings were noted and recorded.
The castor oil model has been an extensively used pharmacological test to screen and evaluate antidiarrheal properties of drugs in rats. […] After 60 min each animal was given with 2 mL of castor oil by orogastric cannula, and placed in a separate cage and observed for 4 h defecation the characteristic diarrheal droppings were noted and recorded.

[2] = test system: cold restrained stress (CRS) induced ulcers; experiment: cold restrained stress (CRS) induced ulcers in rats; conditions: positive control, dose given as 50, mean ± SEM, six rats
Protocol: The effect of composition was further observed on cold resistant stress model of ulcer. […] Rats were starved for 48 hours, and the drinking solution was removed 1 hour before starting experiments. For cold-restraint s tress, the rats were restrained in individual close-fitting tubular wire-mesh cages at 4° C. […] At the end of 2 hours, all the rats were sacrificed. The ulcer index was scored, based upon the product of length and width of the ulcers present in the glandular portion of the stomach (mm^2/rat).
The effect of composition was further observed on cold resistant stress model of ulcer. […] Rats were starved for 48 hours, and the drinking solution was removed 1 hour before starting experiments. For cold-restraint stress, the rats were restrained in individual close-fitting tubular wire-mesh cages at 4° C.

aspirin induced ulcers = aspirin induced ulcers in rats; conditions: aspirin 200 mg/kg, positive control, dose given as 50, mean ± SEM, six rats
Protocol: The effect of the composition on ulcers was evaluated using aspirin induced ulcer model. […] Ulcers were scored after 4 h. The animals were sacrificed and the stomach was then excised and cut along the greater curvature, washed carefully with 5.0 ml of 0.9% NaCl and ulcers were scored in the glandular portion of the stomach. Ulcer index was calculated by adding the total number of ulcers per stomach and the total severity of ulcers per stomach.
The effect of the composition on ulcers was evaluated using aspirin induced ulcer model.

[3] = test system: pylorus ligation induced ulcers; experiment: pylorus ligation (PL) induced ulcers in rats; conditions: positive control, dose given as 50, mean ± SEM, six rats
Protocol: The effect of the composition as an antiulcer agent was further justified using pylorus ligation (PL)-induced ulcer model. […] The mentioned drugs were administered for a period of 5 days as described above and the rats were kept for 18 h fasting and care was taken to avoid coprophagy. Animals were anaesthetized and the abdomen was opened and pylorus ligation was done without causing any damage to its blood supply. After 4 h, stomachs were dissected out and cut open along the greater curvature and ulcers were scored in the glandular portion of the stomach as mentioned in aspirin induced ulcers.
The effect of the composition as an antiulcer agent was further justified using pylorus ligation (PL)-induced ulcer model.
The mentioned drugs were administered for a period of 5 days as described above and the rats were kept for 18 h fasting and care was taken to avoid coprophagy. Animals were anaesthetized and the abdomen was opened and pylorus ligation was done without causing any damage to its blood supply. After 4 h, stomachs were dissected out and cut open along the greater curvature and ulcers were scored in the glandular portion of the stomach as mentioned in aspirin induced ulcers.

ethanol induced ulcers = ethanol induced ulcers in rats; conditions: EtOH 1 ml/200 g, positive control, dose given as 50, mean ± SEM, six rats
Protocol: Further, effect of the composition was evaluated using ethanolinduced ulcer model. […] The ulcer index was scored, based upon the product of length and width of the ulcers present in the glandular portion of the stomach (mm^2/rat).
The ulcer index was scored, based upon the product of length and width of the ulcers present in the glandular portion of the stomach (mm^2/rat).

| SMILES | Total number of faecal matter [1] | Ulcer Index [2] | Ulcer Index (aspirin induced ulcers) | Ulcer Index [3] | Ulcer Index (ethanol induced ulcers) |
| --- | --- | --- | --- | --- | --- |
| CCOC(=O)C1(c2ccccc2)CCN(CCC(C#N)(c2ccccc2)c2ccccc2)CC1 [DiphenoxylateHCl, diphenoxylate HCl] | 19 | – | – | – | – |
| CNC(=C[N+](=O)[O-])NCCSCc1ccc(CN(C)C)o1 [Ranitidine, ranitidine] | – | 6.9 ± 1.0^c mm^2/rat | 7.6 ± 1.4^a | 4.9 ± 1.3^b | 10.3 ± 2.8^a mm^2/rat |
